For 88 molecules, melting point results are on record in a melting point compilation (Tetko et al.).

SMILES strings stand for the structures.

`Nc1cc(N2C(=O)CCC2=O)ccc1F` registered a melting point of 215 to 217 °C.

For the molecule `O=C(O)CN1CCCNC1=O`, the melting point was 248 to 250 °C.

Regarding `Nc1ncc(Cc2cccc(C(=O)O)c2)s1`, the melting point was 217 to 219 °C.

On to `CC(=O)c1ccc(OCC(=O)N2CCOCC2)cc1`, for which the melting point fell in the range of 55 to 59 °C.

On to `Cc1ccsc1C(=O)CC#N`, for which the melting point is 114 to 116 °C.

For `COC(=O)CCNC(=O)c1ccc(N)cc1`, the melting point lay in the range of 99 to 101 °C.

`COc1cc(C)ccc1Oc1ccc(N)cn1` yielded a melting point of 106 to 108 °C.

For the molecule `Cc1ccc(N2C(=O)CSC2=S)cc1`, the melting point lay in the range of 168 to 170 °C.

In turn, `Clc1nc(-c2cccnc2)nc2sc3c(c12)CCC3` displayed a melting point of 145 to 147 °C.

Take `Cc1cc(NC(=O)OCC(F)(F)F)n(CCC#N)n1`: the melting point was 128 to 130 °C.

Take `CC(Oc1cccc(C(C)(C)C)c1)C(=O)O` (stereo not drawn): the melting point lay in the range of 67 to 69 °C.

`C=CS(=O)(=O)c1cccc(Br)c1` showed a melting point of 50 to 52 °C.

Turning to `Nc1nccc(-c2cccnc2)n1`, the melting point is 188 to 190 °C.

With `CCOC(=O)c1c(C)oc2nc(CCl)nc(N)c12`, the melting point was in the range of 191 to 195 °C.

As to `Cc1cc(C)c2nc(NN)cc(C)c2c1`, the melting point lay within 113 to 115 °C.

Turning to `Cc1nn2c(CO)c(C)nc2s1`, the melting point was 129 to 131 °C.

As for `Oc1ccc(-n2cnnn2)cc1`, the melting point lay in the range of 209 to 211 °C.

`CCn1cc2ccc(N)cc2n1` showed a melting point of 97 to 99 °C.

`c1ccc(NCc2ccc3c(c2)OCO3)cc1` gave a melting point of 78 to 80 °C.

Turning to `Cc1cc(=O)[nH]c(-c2cccc(N)c2)n1`, the melting point was 212 to 214 °C.

`O=C(O)c1c[nH]nc1-c1ccncc1` gave a melting point of 334 to 336 °C.

Consider `Cn1c(=O)[nH]cc(C(=O)O)c1=O`, for which the melting point was in the range of 233 to 235 °C.

With `Cc1ccccc1-n1c(S)nnc1-c1cccnc1`, the melting point was in the range of 94 to 96 °C.

For the molecule `COc1ccc(CC(N)=O)cc1F`, the melting point lay in the range of 173 to 175 °C.

`CCc1cc(Cl)nc(-c2ccccn2)n1` gave a melting point of 79 to 81 °C.

The molecule `NC(=O)Cn1ccc(=O)c2ccccc21` yielded a melting point of 294 to 296 °C.

As for `CC(C)c1[nH]ncc1C(=O)O`, the melting point was 216 to 218 °C.

In the case of `O=C1Nc2c(F)ccc(Cl)c2C1=O`, the melting point fell in the range of 279 to 281 °C.

The molecule `CC(=O)c1cc2c(cc1O)OCO2` yielded a melting point of 114 to 116 °C.

`Nc1cc(C(F)(F)F)ccc1O` returned a melting point of 115 to 117 °C.

Take `O=C(O)C(=O)NCC(F)F`: the melting point lay in the range of 105 to 107 °C.

Molecule `CN(c1ccc(O)cc1)S(=O)(=O)c1ccccc1` gave a melting point of 131 to 133 °C.

In turn, `CC(=O)CC(=O)Nc1cccc(Br)c1` yielded a melting point of 108 to 110 °C.

The molecule `O=C1CN(S(=O)(=O)c2cccc([N+](=O)[O-])c2)CCN1` had a melting point of 217 to 219 °C.

`O=C(CBr)c1ccc(S(=O)(=O)N2CCCC2)cc1` displayed a melting point of 121 to 123 °C.

With `CC(=O)c1ccc(N2CCCCC2)c(F)c1`, the melting point lay in the range of 67 to 69 °C.

Take `CC(C)Cn1c(N)c(Br)c(=O)[nH]c1=O`: the melting point is 249 to 251 °C.

The molecule `O=C(O)CCc1nc(-c2ccoc2)no1` came in with a melting point of 143 to 145 °C.

For `CCOC(=O)C(NS(=O)(=O)CC)C(=O)OCC`, the melting point was in the range of 51 to 53 °C.

The molecule `CCC(C)Oc1ccc(C(=O)O)cc1` (stereo not drawn) yielded a melting point of 118 to 120 °C.

For `CCOC(=O)c1c(CC(C)C)csc1NC(=O)CCl`, the melting point was 98 to 100 °C.

Turning to `NCCCS(=O)(=O)Cc1ccccc1`, the melting point is 63 to 65 °C.

`CS(=O)(=O)Nc1cccc(C(=O)O)c1` had a melting point of 230 to 232 °C.

Molecule `Cc1cc(C)cc(-n2c(C)cc(C(=O)O)c2C)c1` yielded a melting point of 169 to 171 °C.

In turn, `NC(=O)c1ncccc1N` gave a melting point of 176 to 178 °C.

The molecule `c1cnnc(NCC2CNCCO2)c1` (stereo not drawn) displayed a melting point of 148 to 150 °C.

`CCCn1c(=O)n(CC(=O)O)c2ccccc21`: the melting point was 173 to 175 °C.

`NCCCCc1cn[nH]c1` registered a melting point of 72 to 74 °C.

With `COc1ccc(NS(=O)(=O)c2ccc(O)c(N)c2)cc1`, the melting point lay within 213 to 215 °C.

As to `COc1ccc(C(=O)NN)c(OC)c1`, the melting point was in the range of 112 to 114 °C.

Regarding `O=C1C=C(c2ccccc2)CCC1`, the melting point was 63 to 65 °C.

As to `NC(C(=O)O)c1ccccc1F` (stereo not drawn), the melting point is 229 to 231 °C.

Molecule `O=C(O)C1CC2CCC1O2` (stereo not drawn) gave a melting point of 44 to 46 °C.

In the case of `NNc1ncnc2sc(-c3ccccc3)cc12`, the melting point fell in the range of 263 to 265 °C.

The molecule `c1ccc(NC2CCCCC2)nc1` came in with a melting point of 123 to 125 °C.

Regarding `Cc1cc(C(=O)O)nn1-c1ccccn1`, the melting point is 157 to 159 °C.

In turn, `Cc1nn(CCO)c2nc(C3CC3)cc(C(=O)O)c12` returned a melting point of 184 to 186 °C.

Molecule `Cc1ccccc1SC(C(=O)O)c1ccccc1` (stereo not drawn) returned a melting point of 100 to 102 °C.

On to `N#Cc1sc(-c2cccc(Cl)c2)cc1N`, for which the melting point is 190 to 192 °C.

The molecule `COC(=O)C(Cl)c1cccc(C#N)c1` (stereo not drawn) returned a melting point of 49 to 51 °C.

As for `CCc1ccc(C(N)=NO)cc1`, the melting point was 160 to 162 °C.

With `CSC(C(=O)O)c1ccccc1` (stereo not drawn), the melting point lay within 75 to 77 °C.

`O=C(O)C1CCN(c2cccc(Br)c2)C1=O` (stereo not drawn) displayed a melting point of 144 to 146 °C.

In turn, `ClCc1nnc(-c2cccc(Br)c2)o1` returned a melting point of 74 to 76 °C.

The molecule `CC1CCCCC12NC(=O)N(CC(=O)O)C2=O` (stereo not drawn) came in with a melting point of 156 to 158 °C.

As to `BrCCCOc1ccc2c(c1)OCO2`, the melting point is 60 to 62 °C.

The molecule `Sc1nnc(-c2cccs2)[nH]1` registered a melting point of 239 to 241 °C.

Regarding `Cc1cccnc1NC(=O)C1CCCNC1` (stereo not drawn), the melting point lay within 123 to 125 °C.

On to `O=C(O)CNC(=O)c1ccc(F)cc1F`, for which the melting point lay in the range of 139 to 141 °C.

Turning to `O=C(O)CNS(=O)(=O)c1ccc(F)c(F)c1F`, the melting point fell in the range of 175 to 177 °C.

Consider `CC(C)N(CCC(=O)O)C(=O)OC(C)(C)C`, for which the melting point fell in the range of 65 to 67 °C.

Regarding `COC(=O)c1nc2n(n1)CCCN2`, the melting point was in the range of 173 to 175 °C.

`CC(C)COc1ncc(C(=O)O)cc1Cl` gave a melting point of 106 to 108 °C.

`O=C(O)CCCCc1ccc(Br)cc1` had a melting point of 90 to 92 °C.

On to `O=C(O)c1ccc(SCc2ccccc2)cc1`, for which the melting point lay in the range of 184 to 186 °C.

Turning to `Cc1nn(C)c(C(=O)O)c1[N+](=O)[O-]`, the melting point was in the range of 146 to 148 °C.

`CC(C)(C)C(=O)C=Cc1ccc(Br)s1` registered a melting point of 44 to 46 °C.

`Cc1ccc2[nH]cc(C=O)c2c1` came in with a melting point of 142 to 144 °C.

In the case of `O=S(=O)(c1ccc(Cl)cc1)N1CCNCC1`, the melting point lay in the range of 99 to 103 °C.

As to `O=Cc1ccc(OCc2cccc(F)c2)cc1`, the melting point fell in the range of 45 to 47 °C.

Take `O=C(CCl)NC(=O)NCc1ccco1`: the melting point fell in the range of 128 to 130 °C.

Turning to `CCCCCC(=O)Nc1cc(OC)c(OC)cc1C(=O)O`, the melting point was in the range of 178 to 180 °C.

Take `CC(C)(C)NS(=O)(=O)c1cc(C(=O)O)ccc1Br`: the melting point is 217 to 219 °C.

The molecule `N#Cc1ccc(Cl)cc1NCC1CCOC1` (stereo not drawn) displayed a melting point of 114 to 116 °C.

In turn, `Cc1cc(C)n2ncc(C(N)=NO)c2n1` came in with a melting point of 227 to 229 °C.

The molecule `c1ccc2c(c1)nc1n2CCN1` returned a melting point of 194 to 206 °C.

With `Cc1n[nH]c(C)c1C1COCCN1` (stereo not drawn), the melting point is 127 to 129 °C.

In the case of `CS(=O)(=O)c1ccc(C(=O)O)cc1[N+](=O)[O-]`, the melting point is 274 to 276 °C.
